Values of other authors in patent US10328040B2, “Therapeutic methods” (ARIZONA BOARD OF REGENTS ON BEHALF OF ARIZONA STATE …, priority 2014, dated 2019).

Experiments:
[1] = tested on: rat model of Parkinson's disease; conditions: low dose
RXR β = conditions: CV-1 cell line; read-out: EC50 for RXR β subtype
RXR γ = conditions: CV-1 cell line; read-out: EC50 for RXR γ subtype
hRXRβ = hRXRβ (Homo sapiens, UniProt P28702); conditions: read-out: EC50 for the hRXRβ isoform
hRXR [2] = conditions: Caco-2 cells
hRXR [3] = conditions: Caco-2 cells; remark: listed apart in the source

Sequence of hRXRβ (P28702 whole entry, canonical isoform): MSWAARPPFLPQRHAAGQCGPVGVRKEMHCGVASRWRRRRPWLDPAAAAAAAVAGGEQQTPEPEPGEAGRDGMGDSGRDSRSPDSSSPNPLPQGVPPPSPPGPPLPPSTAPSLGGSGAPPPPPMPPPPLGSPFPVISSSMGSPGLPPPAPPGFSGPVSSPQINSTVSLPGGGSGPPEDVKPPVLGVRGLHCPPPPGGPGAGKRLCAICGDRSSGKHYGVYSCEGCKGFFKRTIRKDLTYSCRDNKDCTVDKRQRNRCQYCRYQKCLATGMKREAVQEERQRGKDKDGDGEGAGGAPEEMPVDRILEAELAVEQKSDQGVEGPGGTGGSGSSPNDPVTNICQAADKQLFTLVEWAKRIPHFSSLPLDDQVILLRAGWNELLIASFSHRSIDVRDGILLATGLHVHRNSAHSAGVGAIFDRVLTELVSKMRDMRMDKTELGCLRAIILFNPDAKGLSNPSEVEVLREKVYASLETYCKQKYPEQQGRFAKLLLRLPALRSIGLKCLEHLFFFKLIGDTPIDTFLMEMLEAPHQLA

In the case of C=C(c1ccc(C(=O)O)cc1)c1cc2c(cc1C)C(C)(C)CCC2(C)C [Bexarotene], the PD symptoms [1] is listed as “marked improvement in the PD symptoms” and the “dopamine cells and natural behavior” value ([1]; rat model of PD) is listed as “restored dopamine cells and natural behavior”.
In the case of Cc1cc2c(cc1-c1cc(/C=C/C(=O)O)ccc1O)C(C)(C)CCC2(C)C [CD3254, (E)-3-(3-(1,2,3,4-tetrahydro-1,1,4,4,6-pentamethylnaphthylen-7-yl)-4-hydroxyphenyl)acrylic Acid], the EC50 (hRXRβ) is given as roughly 10 nM.
For C=C(c1ccc(C(=O)O)c(F)c1)c1cc2c(cc1C)C(C)(C)CCC2(C)C [Compound 3], the EC50 (hRXR [2]) is given as 43 nM and the Kd (hRXR [3]) is given as 12 nM.
